Reference: publication PMC10582583, “The novel cyclophilin inhibitor C105SR reduces hepatic ischaemia–reperfusion injury via mitoprotection” (JHEP Reports, 2023)

Key:
[1] = test system: isolated mouse liver mitochondria; assay: Calcium retention capacity (CRC) assay in isolated liver mitochondria; assay type: biochemical; conditions: for mitochondrial CRC vs maximum effect of CsA: 5 μM concentration and above (Fig. 2E); for mitochondrial CRC vs CsA and ALV: 0.5 and 1 μM (Fig. 2E); for maximal mitochondrial CRC, diastereoisomer vs racemic mixture: Fig. 2E; for mitochondrial CRC vs control: diastereoisomers at 100 μM (Fig. 2C); for EC50: isolated mouse liver mitochondria
[2] = test system: isolated mouse liver mitochondria; assay: Ca2+-induced mitochondrial swelling assay; assay type: biochemical; conditions: energised isolated mouse liver mitochondria
[3] = test system: AML-12 cells; assay: Propidium iodide staining, hypoxia/reoxygenation; assay type: cell-based, mouse; conditions: 1 μM; 4 h hypoxia, 1 h reoxygenation
Protocol: To assess whether the new SMCypIs reduced mPTP opening-induced cell death, propidium iodide fluorescence was measured in cells that had been co-loaded with calcein-AM. As expected, the loss of calcein fluorescence in cells subjected to hypoxia/reoxygenation was associated with enhanced propidium iodide fluorescence (Fig. 3A and 3C).
Calcium retention capacity (CRC) assay. Isolated liver mitochondria (1 mg/mL) energized with 5 mM glutamate/malate were incubated in a buffer allowing respiration of mitochondria (100 mM KCl, 50 mM sucrose, 10 mM HEPES, 5 mM KH2PO4, pH 7.4 at 30°C) supplemented with 1 µM calcium green 5N fluorescent probe. Mitochondria were pulsed with sequential additions of CaCl2 (20 µM) until mPTP opening along with rapid calcium release happened. The calcium concentration in the extra-mitochondrial medium was monitored with a Jasco FP-6300 spectrofluorimeter (Jasco, Bouguenais, France) at 506 nm excitation and 532 nm emission wavelengths.
Mitochondrial swelling assay. Mitochondrial swelling was assessed by measuring changes in absorbance at 540 nm using a Jasco V-530 spectrophotometer (Bouguenais, France) equipped with magnetic stirring and thermostatic control (30°C). […]
Monitoring of mPTP opening. mPTP opening was monitored in AML-12 cells using the CoCl2-calcein AM fluorescence-quenching assay. […] Calcein fluorescence was measured using a spectrofluorimeter at excitation and emission wavelengths of 485 nm and 535 nm, respectively. Images were acquired using a standard inverted fluorescence microscope (Zeiss Axio, […]
Propidium iodide staining. […] Fluorescence was measured using an Infinite 200 Pro fluorescent plate reader (Tecan, Mannedorf, Switzerland) at excitation and emission wavelengths of 533 nm and 617 nm, respectively. Images were acquired using a standard inverted fluorescence microscope (Zeiss Axio, Oberkochen, Germany). […]
Cell viability assays. Lactate dehydrogenase (LDH) release in culture medium was assessed using the commercially non-radioactive CytoTox-96 kit (Promega, Madison, Wisconsin) following the manufacturer’s instructions. […]

[4] = test system: AML-12 cells; assay: Caspase 3/7 activity assay, hypoxia/reoxygenation; assay type: cell-based, mouse; conditions: applied during hypoxia and reoxygenation; 4 h hypoxia, 2 h reoxygenation
Protocol: Necrosis is the major cause of cell death during hepatic IRI. However, mPTP opening also leads to apoptosis resulting from mitochondrial swelling, rupture of the outer mitochondrial membrane and subsequent release of cytochrome C into the cytosol.[20] We investigated whether C105SR and C110SR protected against mPTP opening-induced apoptotic cell death.
Mouse serum analysis. Blood was collected at 6 h of reperfusion. Alanine aminotransferase (ALT) and aspartate aminotransferase (AST) activities were measured on an automated analyzer in the Biochemistry Department of Henri Mondor Hospital.
Histological Analysis. Hematoxylin and eosin staining was performed on 4-μm thick formalin-fixed paraffin-embedded tissue sections. […] Necrosis areas were quantified with […]
TUNEL Assay. […] The number of TUNEL-positive cells were quantified using QuPath on slides scanned at x20 magnification using a virtual slide scanning system (Axio scan7/ZEN slidescan).
Caspase 3/7 activity assay. Caspase 3/7 activity was assessed using the commercially Caspase-Glo® 3/7 assay (Promega, Madison, Wisconsin) following the manufacturer’s instructions.
Briefly, Caspase-Glo® 3/7 Reagent was incubated with the cells and the caspase3/7 activity was determined by measuring luminescence with a luminometer (Berthold). Caspase3/7 activity was expressed as a percentage of the untreated control. […]

Row | SMILES | mitochondrial CRC vs maximum effect of CsA [1] | mitochondrial CRC vs CsA and ALV [1] | maximal mitochondrial CRC, diastereoisomer vs racemic mixture [1] | mitochondrial CRC vs control [1] | EC50 [1] [nM] | IC50 [2] [nM] | propidium iodide fluorescence [3] | protection against hypoxia/reoxygenation-induced cell apoptosis (caspase 3/7 activity) [4]
1 | COc1ccc(Br)cc1[C@H](NC(=O)NCc1ccc2c(c1)CCCN2)C(=O)N1CCC[C@@H]1c1cccc2ccsc12 [Compound C105SR, 1-((S)-2-((R)-2-(benzo[b]thiophen-7-yl)pyrrolidin-1-yl)-1-(5-bromo-2-methoxyphenyl)-2-oxoethyl)-3-((1,2,3,4-tetrahydroquinolin-6-yl)methyl)urea] | stronger effect than the maximum effect achieved by CsA | comparable to those of CsA and ALV | 595 ± 38 nmol Ca2+/mg of mitochondrial | greater than control mitochondrial CRC | 50 ± 20 | 9 ± 1 | low propidium iodide fluorescence | protected against hypoxia/reoxygenation-induced cell apoptosis
2 | COc1ccc(Br)cc1[C@H](NC(=O)NCc1ccc(N)cc1)C(=O)N1CCC[C@@H]1c1cccc2ccsc12 [Compound C110SR, 1-(4-aminobenzyl)-3-((S)-2-((R)-2-(benzo[b]thiophen-7-yl)pyrrolidin-1-yl)-1-(5-bromo-2-methoxyphenyl)-2-oxoethyl)urea] | stronger effect than the maximum effect achieved by CsA | comparable to those of CsA and ALV | 670 ± 52 nmol Ca2+/mg of mitochondrial | greater than control mitochondrial CRC | 140 ± 20 | 40 ± 5 | low propidium iodide fluorescence | protected against hypoxia/reoxygenation-induced cell apoptosis
